According to article PMC9950205, “Efficacy, safety, and pharmacokinetics of teduglutide in adult Japanese patients with short bowel syndrome and intestinal failure: two phase III studies with an extension” (Surgery Today, 2022):
Where two headings read alike, the source gives them in different places.

Columns and labels:
Type in all cases: in vivo, human
[1] = test system: adult Japanese patients with SBS-IF; assay: Anti-teduglutide antibodies in blood samples
Protocol: (§1) In TED-C14-004 and SHP633-306, blood samples for PK evaluations were taken pre-dose and at 0.25, 0.5, 1, 2, 3, 4, 6, 8, 10, and 12 h post-dose during the first 12 weeks of treatment with teduglutide. In SHP633-307, patients continuing from study TED-C14-004 had blood samples for PK evaluations taken pre-dose and at […], and 1, 2, 3, 4, 6, 8, 10, and 12 h post-dose at the first extension study visit. Patients continuing from SHP633-306 had blood samples taken pre-dose and 1 and 2 h post-dose at the first extension study visit. Blood samples to test for the presence of antibodies to teduglutide were taken at baseline and weeks 12 and 24 in SHP633-306; ≥ 14 h after dosing at baseline and weeks 12 and 24, and then every 6 months thereafter in TED-C14-004; and every 3 months in SHP633-307.
Safety analyses included the monitoring of adverse events (AEs), body weight, BMI, vital signs, 12-lead electrocardiogram (ECG), serum biochemistry, hematology, and presence of antibodies to teduglutide. AEs were coded using the Medical Dictionary for Regulatory Activities versions 17.1 (TED-C14-004) and 21.0 (SHP633-306 and SHP633-307). Specifically, AEs were treatment-emergent AEs (TEAEs), defined as any unfavorable and unintended sign (including any abnormal laboratory finding), symptom, or disease that occurred during treatment with teduglutide, whether or not the event was considered to be related to the study drug by the clinical study investigator. AEs were also categorized as mild, moderate, or severe. […] AEs were considered related to treatment with teduglutide, or its administration, based on the investigator's medical judgment.

[2] = Plasma pharmacokinetics of teduglutide, non-compartmental analysis; conditions: for half-life / AUC(0-inf) / AUC(0-t) / Cmax / Tmax: human, plasma, 0.05 mg/kg; for half-life: read-out: t½ (converted)
Protocol: as §1
Single-dose PK parameters were estimated using a non-compartmental analysis and included the maximum plasma concentration of teduglutide (Cmax), time to Cmax (tmax), terminal half-life elimination (t½), area under the plasma concentration–time curve (AUC) from time 0 to infinity (AUC0-inf), and AUC from time 0 to the last measurable concentration (AUC0-t).

[3] = test system: adult Japanese patients with SBS-IF; assay: Urine output, change from baseline; conditions: for 48 h urine output increase from baseline / 48 h urine output percent increase from baseline: 24 weeks
Protocol: As in the previous STEPS-1 study, patients participating in the core studies (TED-C14-004 and SHP633-306) underwent an optimization (2–8 weeks) and stabilization (4–8 weeks) period before initiation of treatment with teduglutide, during which PS was adjusted with the goal of achieving a stable target urine output of 1.0–2.0 L/day. All participating patients received teduglutide 0.05 mg/kg SC once daily throughout these three studies. PS was adjusted according to an algorithm based on the change from baseline in urine output and other assessments of fluid balance and nutrition status; the PS adjustment algorithm required reductions in PS if the urine output rose more than 10% above baseline. Patients had study visits at weeks 2 and 4, after which visits were held monthly during TED-C14-004 and SHP633-306. During SHP633-307, patients from SHP633-306 had monthly study visits throughout the 24 total months of treatment and then at 3-month intervals thereafter, and patients from TED-C14-004 had visits at 3-month intervals. The end-of-study assessments for SHP633-306 and TED-C14-004 were combined with the first visit of SHP633-307. SHP633-307 is ending soon with the approval of teduglutide in Japan.

[4] = sc, SHP633-306, plasma, 0.05 mg/kg SC once daily, n = 7, mean ± SD
[5] = sc, TED-C14-004, plasma, 0.05 mg/kg SC once daily, n = 8, mean ± SD
[6] = subcutaneous, SHP633-307, patients from TED-C14-004, first extension study visit, mean ± SD
[7] = 30 months, TED-C14-004, n = 7, mean ± SD
[8] = after 6 months, patients who advanced to SHP633-307 from SHP633-306, n = 4, mean ± SD
[9] = last visit before interim data cut-off of SHP633-307, patients from TED-C14-004, n = 7, mean ± SD

## CC[C@H](C)[C@H](NC(=O)[C@H](Cc1ccccc1)NC(=O)[C@H](CC(=O)O)NC(=O)[C@H](CCCNC(=N)N)NC(=O)[C@H](C)NC(=O)[C@H](C)NC(=O)[C@H](CC(C)C)NC(=O)[C@H](CC(N)=O)NC(=O)[C@H](CC(=O)O)NC(=O)[C@H](CC(C)C)NC(=O)[C@@H](NC(=O)[C@@H](NC(=O)[C@H](CC(N)=O)NC(=O)[C@H](CCSC)NC(=O)[C@H](CCC(=O)O)NC(=O)[C@H](CC(=O)O)NC(=O)[C@H](CO)NC(=O)[C@H](Cc1ccccc1)NC(=O)[C@H](CO)NC(=O)CNC(=O)[C@H](CC(=O)O)NC(=O)CNC(=O)[C@@H](N)Cc1c[nH]cn1)[C@@H](C)O)[C@@H](C)CC)C(=O)N[C@@H](CC(N)=O)C(=O)N[C@@H](Cc1c[nH]c2ccccc12)C(=O)N[C@@H](CC(C)C)C(=O)N[C@H](C(=O)N[C@@H](CCC(N)=O)C(=O)N[C@H](C(=O)N[C@@H](CCCCN)C(=O)N[C@H](C(=O)N[C@H](C(=O)N[C@@H](CC(=O)O)C(=O)O)[C@@H](C)O)[C@@H](C)CC)[C@@H](C)O)[C@@H](C)CC [teduglutide]
[1]; 24 weeks, 5 out of 14 patients (n = 4 TED-C14-004; n = 1 SHP633-306)
  Patients positive for anti-teduglutide antibodies: 35.7%
[1]; 39 months, patients from TED-C14-004 in SHP633-307, two patients
  Patients with low titers of anti-teduglutide antibodies as well as neutralizing antibodies: 40.0%
[1]; 51 or 54 months, n = 7
  Anti-teduglutide antibodies: No anti-teduglutide antibodies were detected
[1]; TED-C14-004
  Patients positive at 24 weeks who also tested positive up to 22 months: Three of the 4 patients
[1]; all studies
  Association between anti-teduglutide antibodies and a lack of efficacy: no association
[1]; month 12, SHP633-307 patients from SHP633-306, 2 out of 4
  Patients positive for antibodies to teduglutide: 50.0%
[1]; patients in whom antibodies were detected
  Association of anti-teduglutide antibodies with AEs of hypersensitivity or teduglutide-related hypersensitivity reaction: no association
[2]; SHP633-307, patients from SHP633-306, sparse PK sampling, suggests no accumulation
  Pre-dose concentrations after multiple dosing: below the lower limit quantification
[2]; sc, SHP633-306, plasma, 0.05 mg/kg SC once daily, n = 6, mean ± SD
  half-life: 1.1 ± 0.2 h
[2]; [4]
  AUC(0-inf): 252 ± 85.4 ng·h/mL
  AUC(0-t): 240 ± 80.7 ng·h/mL
  Cmax: 49.5 ± 16.4 ng/mL
  Tmax: 3.6 ± 1.6 h
[2]; [5]
  AUC(0-inf): 204 ± 51.1 ng·h/mL
  AUC(0-t): 201 ± 51.6 ng·h/mL
  Cmax: 49.7 ± 19.7 ng/mL
  Tmax: 2.6 ± 1 h
  half-life: 1.2 ± 0.7 h
[2]; [6]
  AUC(0-inf): 209 ± 72.7 ng·h/mL
  AUC(0-t): 200 ± 71.6 ng·h/mL
  Cmax: 54.1 ± 18.7 ng/mL
  Tmax: 2.1 ± 0.4 h
[3]; SHP633-306, n = 6, mean ± SD
  48 h urine output increase from baseline: 212.5 ± 265.9 mL/day
  48 h urine output percent increase from baseline: 18.0% ± 23.9%
[3]; TED-C14-004, n = 9, mean ± SD
  48 h urine output increase from baseline: 226.7 ± 555.1 mL/day
  48 h urine output percent increase from baseline: 9.3% ± 22.4%
[3]; [7]
  Urine output increase from baseline: 306.0 ± 735.0 mL/day
  Urine output percent increase from baseline: 11.2% ± 24.6%
[3]; [8]
  Urine output increase from baseline: 345.0 ± 217.8 mL/day
  Urine output percent increase from baseline: 29.0 ± 21.6%
[3]; [9]
  Mean urine output: 1388.2 ± 507.8 mL/day
  Urine output percent change from baseline: −2.0% ± 35.3%
